This is an account of results in paper PMC10533412, “Phosphoantigens glue butyrophilin 3A1 and 2A1 to activate Vγ9Vδ2 T cells” (Nature, 2023).

Test [1] deals with VpBTN2 BFI–VpBTN3 BFI. In words: ITC: VpBTN2 BFI binding to VpBTN3 BFI in the presence of pAg. Details: species or system alpaca (Vicugna pacos). Here is the method:
(§1) ITC binding fits were calculated using MicroCal Analysis software.
(§2) ITC experiments of HMBPP, DMAPP or IPP binding to the VpBTN3 BFI (or the preconditioned VpBTN3 BFI and VpBTN2 BFI complex) and VpBTN2 BFI (or VpBTN1 BFI) binding to VpBTN3 BFI in the presence of HMBPP, DMAPP or IPP were performed according to the same procedures as for the BTN3A1 B30.2 and BTN2A1 B30.2.

The subject of test [2] is MIA PaCa-2 cells. Nature of the test: AFM-SCFS binding force between a Vγ9Vδ2 T cell and a MIA PaCa-2 cell. It is filed as cell-based, human. Details: binding force, Mean, Fig. 6b / binding force, Median, Fig. 6b: unit not given here. The procedure:
The AFM-SCFS analysis procedure was performed using the JPK CellHesion unit as previously described, and closely followed our previously reported protocol for APCs[4]. […] The glass disks were quickly transferred to an AFM adapter with immediate addition of 1 ml of fresh medium (DMEM: 10% FBS and 1% penicillin–streptomycin). […] The raw data were normalized to the background readings. Blank readings for each set of affinity measurements (Vγ9Vδ2 T cells touching the glass surface) were collected immediately before each assay to perform background subtraction. All data were analysed using the JPK image processing software. […] The following steps were the same as described above.

In test [3] the target is T1, BTN2A1 B30.2–BTN3A1 B30.2 (Homo sapiens, UniProt O00481+Q7KYR7).
T1 construct: The BTN3A1 B30.2 domain was expressed and purified as described previously; 6xHis; made in house; host or cells: Escherichia coli BL21 (DE3) for BTN2A1 B30.2
T1 sequence (O00481 322-513 limits assumed): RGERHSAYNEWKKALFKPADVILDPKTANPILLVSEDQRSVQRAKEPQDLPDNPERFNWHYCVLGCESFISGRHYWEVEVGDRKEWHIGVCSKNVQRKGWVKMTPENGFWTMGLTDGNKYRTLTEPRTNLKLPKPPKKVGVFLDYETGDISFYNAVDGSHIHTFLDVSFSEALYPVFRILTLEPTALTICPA
T1 sequence (Q7KYR7 316-527 limits assumed): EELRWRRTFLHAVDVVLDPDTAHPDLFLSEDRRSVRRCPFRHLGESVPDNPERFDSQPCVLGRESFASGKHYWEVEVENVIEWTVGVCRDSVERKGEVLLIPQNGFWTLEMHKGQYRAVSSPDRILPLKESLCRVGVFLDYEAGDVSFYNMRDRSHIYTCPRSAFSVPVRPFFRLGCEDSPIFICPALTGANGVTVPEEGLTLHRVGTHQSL
Nature of the test: Sedimentation velocity AUC of BTN2A1 B30.2 and BTN3A1 B30.2 with or without HMBPP. The settings on record: SV-AUC. Here is the method: Sedimentation experiments were performed at 20 °C and 45,000 rpm on the Beckman Coulter ProteomeLab XL-I analytical ultracentrifuge according to standard protocols. All of the samples were prepared in the buffer (20 mM HEPES pH 7.5, 150 mM NaCl) and inserted into 12 mm (or 3 mm) Epon centerpieces.

In test [4] the test system is VpBTN1 BFI–VpBTN3 BFI. In words: ITC: VpBTN1 BFI binding to VpBTN3 BFI in the presence of pAg. Details: species or system alpaca (Vicugna pacos). Here is the method: ITC experiments were performed using the MicroCal PEAQ-ITC instrument (GE Healthcare) at 25 °C. We used an initial injection of 0.4 μl followed by 19 injections (2 µl each) at 150 s time intervals. ITC binding fits were calculated using MicroCal Analysis software. The samples were prepared using a buffer (20 mM HEPES pH 7.5, 150 mM NaCl).
as §2

Test [5] addresses T2, BTN3A3(R351H) B30.2 (Homo sapiens, UniProt O00478).
T2 construct: the B30.2 domain of this active mutant (BTN3A3(R351H))
In words: ITC: HMBPP binding to BTN3A3(R351H) B30.2. Here is the method: as §1
(In ITC the heat of successive injections is recorded.)

For test [6], the target named is T1, BTN2A1 B30.2–BTN3A1 B30.2. In words: SEC–MALS of BTN2A1 B30.2–BTN3A1 B30.2 with or without HMBPP. The settings on record: listed as HMBPP.
Experimental: SEC–MALS experiments were performed using the Wyatt Dawn Heleos II multiangle light-scattering detector (Wyatt Technology) coupled to an AKTA Purifier UPC10 FPLC protein purification system and the Superdex 200 size-exclusion column (GE Healthcare). Protein molecular masses of the individual peaks observed in the size-exclusion chromatograms were analysed by static light scattering in conjunction with their corresponding refractive indices, using an online refractometer connected downstream of the static light scattering detector (Wyatt Optilab rEX). The proteins were prepared at 5 mg ml^−1 in a buffer (20 mM HEPES pH 7.5, 150 mM NaCl). HMBPP was prepared in 0.5 mM. The experiments were performed with a running buffer (20 mM HEPES pH 7.5, 150 mM NaCl) at a flow rate of 0.5 ml min^−1. A standard value of the refractive index, dn/dc = 0.185 ml g^−1, was used for all proteins.
[7] abbreviates: 2A1-KO cells + HMBPP, 31 values.
The mark [8] stands for this setting: 2A1ΔB30.2 cells + HMBPP, 39 values.

Each structure is given as a SMILES string.

One may read the Kd as a measure of binding affinity in units of concentration.

T2 sequence (O00478 322-518 R381H): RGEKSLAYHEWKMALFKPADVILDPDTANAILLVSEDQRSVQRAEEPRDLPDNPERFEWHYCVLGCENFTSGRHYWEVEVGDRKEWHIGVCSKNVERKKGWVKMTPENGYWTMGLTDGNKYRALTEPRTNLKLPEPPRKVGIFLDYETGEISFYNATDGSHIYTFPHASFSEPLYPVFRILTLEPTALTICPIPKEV

`C/C(=C\COP(=O)(O)OP(=O)(O)O)CO` [Compound 1, (E)-4-hydroxy-3-methylbut-2-en-1-yl diphosphate]: in test [1], the “Binding of VpBTN2 mutants (R475A, T508M and V509A) to VpBTN3 in the presence of HMBPP” value was “abolished its binding”. For the same compound, the “binding force, Mean, Fig. 6b” value in test [2] (setting [7]) is on record as 767.7; in test [2] (2A1 cells + HMBPP, 31 values) it was 1509; in test [2] (setting [8]), 594.3. Also, the “binding force, Median, Fig. 6b” value is 745 in test [2] (setting [7]); 1510 in test [2] (2A1 cells + HMBPP, 31 values); 585 in test [2] (setting [8]). The “Binding force between a Vγ9Vδ2 T cell and a MIA PaCa-2 cell” value in test [2] (after HMBPP treatment (1 µM, 4 h), untreated 558 pN) is listed as 1,554 pN. Besides, in test [3], the “Molecular mass of BTN2A1 B30.2–BTN3A1 B30.2 oligomer formed on addition of HMBPP (tetramer)” value was 94.9 kDa. Moreover, the “VpBTN1 binding to VpBTN3 in the presence of pAg” value in test [4] is reported as “does not bind”. The compound also had an equilibrium dissociation constant (Kd) in test [5] of 10.9 µM. Also, the “Molecular mass of BTN2A1 B30.2–BTN3A1 B30.2 oligomer formed on addition of HMBPP (trimer)” value in test [6] stood at 78.7 kDa.
